Data taken from the C3SDB collision cross section collection.
Several values for one entry are separate records, joined by “and”; a condition that tells them apart may be missing. Equal entries are not always repeated.

Details: [M+H]+; instrument: TW; calibrated with polyalanine and drug standards

Row | Structure (SMILES) | collision cross section (N2)
1 | C/C=C/C(=O)N(CC)c1ccccc1C [CROTAMITON] | 145.1 Å²
2 | CC(C)(O)CC[C@@H](O)[C@](C)(O)[C@H]1CC[C@@]2(O)C3=CC(=O)[C@@H]4C[C@@H](O)[C@@H](O)C[C@]4(C)[C@H]3CC[C@]12C [CRUSTECDYSONE] | 221.3 Å²
3 | COc1cc(/C=C/C(=O)CC(=O)/C=C/c2ccc(O)c(OC)c2)ccc1O [CURCUMIN] | 198.5 Å²
4 | CN1CCN(C(c2ccccc2)c2ccccc2)CC1 [CYCLIZINE] | 164.8 Å²
5 | NC1=NCCN1CC(=O)O [CYCLOCREATINE] | 124.3 Å²
6 | CC(=O)O[C@]1(C(C)=O)CC[C@H]2[C@@H]3C=C(Cl)C4=CC(=O)[C@@H]5C[C@@H]5[C@]4(C)[C@H]3CC[C@@]21C [CYPROTERONE ACETATE] | 199.4 Å²
7 | Nc1ccn([C@@H]2O[C@H](CO)[C@@H](O)[C@@H]2O)c(=O)n1 [CYTARABINE] | 150.5 Å²
8 | O=c1cccc2n1C[C@@H]1CNC[C@H]2C1 [CYTISINE] | 137.9 Å²
9 | COc1cccc2c1C(=O)c1c(O)c3c(c(O)c1C2=O)C[C@@](O)(C(C)=O)C[C@@H]3O[C@H]1C[C@H](N)[C@H](O)[C@H](C)O1 [DAUNORUBICIN] | 222.9 Å²
10 | CC(=O)O[C@H]1C[C@@H](OC(C)=O)C(C)(C)C2CC(=O)[C@]3(C)C(CC[C@@]4(C)[C@H](C(=O)O)OC(=O)C5OC543)[C@]21C (some centres undefined) [DEACETOXY(7)-7-OXOKHIVORINIC ACID] | 212.6 Å²
11 | COc1cc2c(cc1OC)-c1c(oc3c4c(ccc3c1=O)OC(C(C)C)C4)CO2 (centres undefined) [DEHYDRODIHYDROROTENONE] | 194.6 Å²
12 | COc1ccc2c(c1)OCc1c-2oc2cc(OC)ccc12 [DEHYDROVARIABILIN] | 159 Å²
13 | COc1ccc2c(c1)OCC(Cc1ccc(O)c(OC)c1)C2=O (centres undefined) [DEOXYSAPPANONE B 7,3'-DIMETHYL ETHER] | 171.2 Å²
14 | COc1ccc2c(c1)OCC(Cc1ccc(OC)c(O)c1)C2=O (centres undefined) [DEOXYSAPPANONE B 7,4'-DIMETHYL ETHER] | 170.6 Å²
15 | COc1ccc(-c2cc(C(F)F)nn2-c2ccc(S(N)(=O)=O)cc2)cc1F [DERACOXIB] | 189.9 Å²
16 | COc1cc(OC)c2c(OC)c(-c3ccc4c(c3)OCO4)c(=O)oc2c1 [DERRUSNIN] | 176.7 Å²
17 | CC1(C)O[C@@H]2C[C@H]3[C@@H]4CCC5=CC(=O)C=C[C@]5(C)[C@H]4[C@@H](O)C[C@]3(C)[C@]2(C(=O)CO)O1 [DESONIDE] | 198.5 Å²
18 | CC(=O)OCC(=O)[C@H]1CC[C@H]2[C@@H]3CCC4=CC(=O)CC[C@]4(C)[C@H]3CC[C@]12C [DESOXYCORTICOSTERONE ACETATE] | 193.8 Å²
19 | CC1CC2C3CCC4=CC(=O)C=CC4(C)C3(F)C(O)CC2(C)C1C(=O)CO (centres undefined) [DESOXYMETASONE] | 186.4 Å²
20 | C=CCSSSCC=C [DIALLYL TRISULFIDE] | 126.9 Å²
21 | COP(=O)(OC)OC=C(Cl)Cl [DICHLORVOS] | 138.7 Å²

Row | Structure (SMILES) | collision cross section (N2)
22 | CCCc1cc(OC)c2c(c1)OCO2 [DIHYDROMYRISTICIN] | 128.7 Å²
23 | Cc1cccc2c3c(ccc12)C1=C(C(=O)C3=O)[C@@H](C)CO1 [DIHYDROTANSHINONE I] | 159.4 Å²
24 | CN(C(=O)C(Cl)Cl)c1ccc(OC(=O)c2ccco2)cc1 [DILOXANIDE FUROATE] | 171.7 Å²
25 | COC(=O)NC(=S)Nc1ccccc1NC(=S)NC(=O)OC [DIMETHYL 4,4-o-PHENYLENE-BIS (3-THIOPHANATE)] | 173.3 Å²
26 | COc1ccc(C(=O)c2ccccc2O)c(O)c1 [DIOXYBENZONE] | 150 Å²
27 | OCCN(CCO)c1nc(N2CCCCC2)c2nc(N(CCO)CCO)nc(N3CCCCC3)c2n1 [DIPYRIDAMOLE] | 223.9 Å²
28 | CCN(CC)C(=S)SSC(=S)N(CC)CC [DISULFIRAM] | 165.5 Å²
29 | CCn1cc(C(=O)O)c(=O)c2cc(F)c(N3CCNCC3)nc21 [ENOXACIN] | 168.1 Å² and 184.7 Å²
30 | CCN1CCN(c2cc3c(cc2F)c(=O)c(C(=O)O)cn3C2CC2)CC1 [ENROFLOXACIN] | 190.6 Å²
31 | CCC(C)C(=O)O[C@@H]1C[C@@]2(C)[C@H](c3ccoc3)OC(=O)CC23OC2(C)OC34[C@H](OC(=O)C(C)C)[C@@]3(O)[C@@H](OC(=O)C5(C)OC5C)[C@@]5(C)C[C@]3(O)[C@@](C)([C@H]5CC(=O)OC)C14O2 (some centres undefined) [ENTANDROPHRAGMIN] | 259.8 Å²
32 | O=C(O[C@@H]1Cc2c(O)cc(O)cc2O[C@@H]1c1ccc(O)c(O)c1)c1cc(O)c(O)c(O)c1 [EPICATECHIN MONOGALLATE] | 202.9 Å²
33 | CCN(CC)C(=O)c1ccc(O)c(OC)c1 [ETHAMIVAN] | 149 Å²
34 | CCc1cc(C(N)=S)ccn1 [ETHIONAMIDE] | 135.8 Å²
35 | CCOc1ccc2c(c1)C(C)=CC(C)(C)N2 [ETHOXYQUIN] | 152.6 Å²
36 | CCOC(=O)c1ccc(O)cc1 [ETHYL PARABEN] | 125.4 Å²
37 | CCOC(=O)c1cncn1C(C)c1ccccc1 (centres undefined) [ETOMIDATE] | 155.9 Å²
38 | CC(=O)OCC(CCn1cnc2cnc(N)nc21)COC(C)=O [FAMCICLOVIR] | 168.4 Å²
39 | Cc1nc(-c2ccc(OCC(C)C)c(C#N)c2)sc1C(=O)O [FEBUXOSTAT] | 180.6 Å²
40 | COC(=O)Nc1nc2ccc(Sc3ccccc3)cc2[nH]1 [FENBENDAZOLE] | 170.8 Å²
41 | CCC(C(N)=O)c1ccccc1 (centres undefined) [FENBUTYRAMIDE] | 135.8 Å²
42 | CC1(C)OC(=O)C(OCC2CC2)=C1c1ccc(S(C)(=O)=O)cc1 [FIROCOXIB] | 181.1 Å²

Row | Structure (SMILES) | collision cross section (N2)
43 | COC(=O)C[C@H]1C(C)(C)[C@H](OC(C)=O)[C@@H]2CC3=C4CC(=O)O[C@@H](c5ccoc5)[C@]4(C)CC[C@@H]3C1(C)C2=O [FISSINOLIDE] | 213.3 Å²
44 | OC(Cn1cncn1)(Cn1cncn1)c1ccc(F)cc1F [FLUCONAZOLE] | 163.4 Å²
45 | Nc1[nH]c(=O)ncc1F [FLUCYTOSINE] | 118.4 Å²
46 | COc1ccc(-c2coc3cc(O)ccc3c2=O)cc1 [FORMONONETIN] | 156.8 Å²
47 | CCOC(=O)c1ncn2c1CN(C)C(=O)c1cc(F)ccc1-2 [FUMAZENIL] | 165.6 Å²
48 | NS(=O)(=O)c1cc(C(=O)O)c(NCc2ccco2)cc1Cl [FUROSEMIDE] | 169.3 Å²
49 | CC(C)=CCC[C@]1(C)C=Cc2c(O)c3c(c(CC=C(C)C)c2O1)O[C@]12C(=C[C@@H]4C[C@H]1C(C)(C)O[C@@]2(C/C=C(/C)C(=O)O)C4=O)C3=O [GAMBOGIC ACID] | 239 Å²
50 | N[C@@H](CCC(=O)N[C@@H](CS)C(=O)NCC(=O)O)C(=O)O [GLUTATHIONE] | 165.7 Å²
51 | C[C@H](CCC(=O)NCC(=O)O)[C@H]1CC[C@H]2[C@@H]3[C@H](O)C[C@@H]4C[C@H](O)CC[C@]4(C)[C@H]3C[C@H](O)[C@]12C [GLYCOCHOLIC ACID] | 205.2 Å²
52 | O=c1c(O)c(-c2ccc(O)c(O)c2)oc2c(O)c(O)cc(O)c12 [GOSSYPETIN] | 165.9 Å²
53 | O=c1c(O)c(-c2ccc(O)c(O)c2)oc2c(O[C@@H]3O[C@H](CO)[C@@H](O)[C@H](O)[C@H]3O)c(O)cc(O)c12 [GOSSYPIN] | 199.6 Å²
54 | CN(C)Cc1c[nH]c2ccccc12 [GRAMINE] | 134.9 Å²
55 | COC1=CC(=O)C[C@@H](C)[C@]12Oc1c(Cl)c(OC)cc(OC)c1C2=O [GRISEOFULVIN] | 178.6 Å²
56 | CC1=C(CCC(=O)O)c2cc3nc(cc4[nH]c(cc5[nH]c(cc1n2)c(C)c5C(C)O)c(C)c4C(C)O)C(C)=C3CCC(=O)O (centres undefined) [HAEMATOPORPHYRIN] | 248.4 Å²
57 | CC1(C)O[C@@H]2C[C@H]3[C@@H]4CCC5=CC(=O)CC[C@]5(C)[C@@]4(F)[C@@H](O)C[C@]3(C)[C@]2(C(=O)CCl)O1 [HALCINONIDE] | 200.9 Å²
58 | COc1ccc2c(c1)[nH]c1c(C)nccc12 [HARMINE] | 144.5 Å²
59 | COc1ccc([C@@H]2CC(=O)c3c(O)cc(O)cc3O2)cc1O [HESPERETIN] | 169.1 Å²
60 | COc1cc(O)c2c(=O)cc(C)oc2c1CC=C(C)C [HETEROPEUCENIN, METHYL ETHER] | 161.7 Å²
61 | COc1ccc(-c2oc3cc(OC)c(OC)c(OC)c3c(=O)c2OC)cc1OC [HEXAMETHYLQUERCETAGETIN] | 191.2 Å²
62 | CCCCCCc1ccc(O)cc1O [HEXYLRESORCINOL] | 129 Å²

Same assay, conditions: [M+Na]+; instrument: TW; calibrated with polyalanine and drug standards

Row | Structure (SMILES) | collision cross section (N2)
63 | CC1CC(OC(=O)C(O)c2ccccc2)CC(C)(C)C1 (centres undefined) [CYCLANDELATE] | 186.2 Å²
64 | C=C[C@@]1(C)CC(=O)[C@@]2(O)[C@](C)(O1)[C@@H](O)[C@@H](O)C1C(C)(C)CC[C@H](O)[C@@]12C (some centres undefined) [DESACETYLCOLFORSIN] | 185.6 Å²
65 | CC(=O)Oc1cccc(C(=O)O)c1OC(C)=O [DIPYROCETYL] | 150 Å²
66 | COc1ccc2c(c1OC)OC[C@@H](c1ccc(OC)c(OC)c1OC)C2 [DUARTIN, DIMETHYL ETHER] | 183.2 Å²
67 | C[C@H](CCC(=O)NCC(=O)O)[C@H]1CC[C@H]2[C@@H]3[C@H](O)C[C@@H]4C[C@H](O)CC[C@]4(C)[C@H]3C[C@H](O)[C@]12C [GLYCOCHOLIC ACID] | 200.8 Å²
68 | COc1ccc([C@@H]2CC(=O)c3c(O)cc(O[C@@H]4O[C@H](CO[C@@H]5O[C@@H](C)[C@H](O)[C@@H](O)[C@H]5O)[C@@H](O)[C@H](O)[C@H]4O)cc3O2)cc1O [HESPERIDIN] | 227 Å²

Same assay, conditions: [M]+; instrument: TW; calibrated with polyalanine and drug standards

Row | Structure (SMILES) | collision cross section (N2)
69 | O=C1OCCN1/N=C/c1ccc([N+](=O)[O-])o1 [FURAZOLIDONE] | 144.2 Å²
